Test systems include CCRF-CEM leukemia; EKVX NSCLC; HL-60(TB) leukemia; NCI-H460 lung; NCI-H522 lung; OVCAR-8 ovarian; RXF 393 renal; SK-MEL-5 melanoma; SNB-19 CNS; UACC-62 melanoma.
Common to all, as to test: NCI anticancer screen, dose series, 48 h

Each structure is given as a SMILES string.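 Assay format: 96-well plates, 48-hour exposure. GI50 = concentration required for 50% inhibition of growth. TGI denotes the concentration required for complete inhibition of growth.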 A value given as a limit tells only on which side of the number the result lay.

Turning to `CC(C)=CCC/C(C)=C/CC/C(C)=C/CC/C=C(\C)CC/C=C(\C)CCC(=O)Nc1ccn(C2OC(CO)C(O)C2(F)F)c(=O)n1` (stereo not drawn), the GI50 with CCRF-CEM leukemia is 0.0639 µM; with EKVX NSCLC, 0.112 µM; with HL-60(TB) leukemia, 0.0618 µM; in the assay on NCI-H460 lung, 0.0444 µM; with NCI-H522 lung, 0.0854 µM; in the assay with OVCAR-8 ovarian, 0.0652 µM. Also, the GI50 in the assay with RXF 393 renal was 1.09 µM; in the assay with SK-MEL-5 melanoma, 0.168 µM; with SNB-19 CNS, 0.0245 µM; in the assay on UACC-62 melanoma, 0.287 µM. For the same molecule, the TGI is 0.525 µM with CCRF-CEM leukemia; 17 µM in the assay with EKVX NSCLC; 0.539 µM with HL-60(TB) leukemia; 3.74 µM in the assay with NCI-H460 lung; 5.83 µM with NCI-H522 lung; above 100 µM in the assay with OVCAR-8 ovarian. Further, the TGI in the assay with RXF 393 renal amounted to 7.15 µM; in the assay on SK-MEL-5 melanoma, 4.75 µM; in the assay on SNB-19 CNS, 11.7 µM; in the assay on UACC-62 melanoma, 15.2 µM.
In the case of `COc1ccc2cc(-c3c(-c4ccncc4)nc(-c4ccc(S(C)=O)cc4)n3C)ccc2c1` (stereo not drawn), the GI50 is above 21.6 µM in the assay on CCRF-CEM leukemia; 15.6 µM in the assay with EKVX NSCLC; 18.3 µM in the assay with HL-60(TB) leukemia; 24.8 µM in the assay on NCI-H460 lung; above 18.5 µM with NCI-H522 lung; 17.9 µM in the assay with OVCAR-8 ovarian. The GI50 in the assay with RXF 393 renal was 2.78 µM; in the assay with SK-MEL-5 melanoma, 5.58 µM; in the assay with SNB-19 CNS, above 20.8 µM; in the assay on UACC-62 melanoma, 21 µM. The TGI in the assay with CCRF-CEM leukemia, in the assay on EKVX NSCLC, in the assay with HL-60(TB) leukemia, with NCI-H460 lung, in the assay with NCI-H522 lung and with OVCAR-8 ovarian was above 25 µM throughout. The TGI in the assay on RXF 393 renal is above 25 µM; in the assay with SK-MEL-5 melanoma, above 21.2 µM; in the assay on SNB-19 CNS, above 25 µM; with UACC-62 melanoma it was above 25 µM.
As to `Fc1cccc(C2SCc3nc4ccccc4n32)c1F` (stereo not drawn), the TGI was above 100 µM in the assay on CCRF-CEM leukemia; above 100 µM in the assay on EKVX NSCLC; 46.9 µM in the assay on HL-60(TB) leukemia; above 100 µM in the assay on NCI-H460 lung; above 100 µM with NCI-H522 lung; above 100 µM with OVCAR-8 ovarian. In addition, the TGI was above 100 µM in the assay on RXF 393 renal, 53.2 µM in the assay with SK-MEL-5 melanoma, above 100 µM with SNB-19 CNS and above 100 µM in the assay on UACC-62 melanoma.
Turning to `COc1ccc(C(=O)N2c3ccccc3Sc3ccccc32)c(OC)c1`, the GI50 in the assay on CCRF-CEM leukemia is 0.394 µM; with EKVX NSCLC it was 0.851 µM; with HL-60(TB) leukemia, 0.297 µM; in the assay with NCI-H460 lung, 0.406 µM; in the assay with NCI-H522 lung, 0.343 µM; with OVCAR-8 ovarian, 0.749 µM. Also, the GI50 in the assay on RXF 393 renal was 0.413 µM; with SK-MEL-5 melanoma it was 0.408 µM; in the assay on SNB-19 CNS, 0.551 µM; with UACC-62 melanoma it was 0.321 µM. For the same molecule, the TGI with CCRF-CEM leukemia was above 100 µM; with EKVX NSCLC it was above 100 µM; in the assay with HL-60(TB) leukemia it was 18.5 µM; with NCI-H460 lung, above 100 µM; in the assay with NCI-H522 lung, above 100 µM; in the assay on OVCAR-8 ovarian, above 100 µM. For the same molecule, the TGI in the assay with RXF 393 renal, with SK-MEL-5 melanoma, with SNB-19 CNS and in the assay on UACC-62 melanoma was above 100 µM each time.
With `COc1ccc(C2[C@@H](Cl)C(=O)N2c2cc(OC)c(OC)c(OC)c2)cc1Cl` (stereo partly drawn), the GI50 was 0.19 µM with CCRF-CEM leukemia; 0.434 µM in the assay on EKVX NSCLC; 0.175 µM in the assay on HL-60(TB) leukemia; 0.317 µM in the assay on NCI-H460 lung; 0.0353 µM in the assay with NCI-H522 lung; 0.272 µM in the assay on OVCAR-8 ovarian. Besides, the GI50 with RXF 393 renal is 0.0615 µM; in the assay with SK-MEL-5 melanoma, 0.102 µM; with SNB-19 CNS, 0.293 µM; in the assay with UACC-62 melanoma it was 0.0463 µM. Besides, the TGI in the assay with CCRF-CEM leukemia is 39.4 µM; in the assay with EKVX NSCLC, above 100 µM; in the assay on HL-60(TB) leukemia it was 0.463 µM; in the assay on NCI-H460 lung, 6.95 µM; with NCI-H522 lung, 0.296 µM; in the assay with OVCAR-8 ovarian it was 20.5 µM. Also, the TGI is 65.5 µM in the assay with RXF 393 renal, 0.795 µM in the assay with SK-MEL-5 melanoma, above 100 µM in the assay with SNB-19 CNS and 29 µM with UACC-62 melanoma.
As for `BrCc1ccc(CBr)cc1`, the GI50 is 2.07 µM in the assay on CCRF-CEM leukemia; 10.5 µM with EKVX NSCLC; 7.6 µM in the assay with HL-60(TB) leukemia; 4.84 µM in the assay with NCI-H460 lung; 18.2 µM in the assay on NCI-H522 lung; 5.52 µM in the assay on OVCAR-8 ovarian. The GI50 is 5.61 µM in the assay with RXF 393 renal, 14.3 µM with SK-MEL-5 melanoma, 0.528 µM in the assay on SNB-19 CNS and 5.13 µM with UACC-62 melanoma. The TGI in the assay with EKVX NSCLC is 25.7 µM; in the assay on NCI-H460 lung, 17.4 µM; in the assay on NCI-H522 lung it was 52.2 µM; in the assay on OVCAR-8 ovarian, 20.9 µM; with RXF 393 renal, 16.2 µM; in the assay on SK-MEL-5 melanoma, 40.2 µM. The values for the TGI in the assay with SNB-19 CNS and in the assay on UACC-62 melanoma were 25.8 µM and 22.3 µM, respectively.
For `C[C@@H]1O[C@@H](O[C@H]2CC[C@@]3(C)[C@H](CCC4[C@@H]3C(O)C[C@]3(C)[C@@H](c5ccc(=O)oc5)CC[C@]43O)C2)[C@H](O)[C@H](O)[C@H]1O` (stereo partly drawn), the GI50 was below 0.00325 µM in the assay on CCRF-CEM leukemia; 0.00379 µM in the assay with EKVX NSCLC; 0.0049 µM with HL-60(TB) leukemia; below 0.00325 µM in the assay on NCI-H460 lung; below 0.00325 µM with NCI-H522 lung; 0.00415 µM in the assay with OVCAR-8 ovarian. The GI50 in the assay with RXF 393 renal is 0.0064 µM; in the assay on SK-MEL-5 melanoma, 0.00561 µM; in the assay on SNB-19 CNS, 0.0108 µM; with UACC-62 melanoma, 0.00698 µM. Also, the TGI in the assay with CCRF-CEM leukemia turned out to be 0.0076 µM; in the assay with EKVX NSCLC, 0.00766 µM; with HL-60(TB) leukemia, 0.00768 µM; in the assay with NCI-H460 lung, 0.00509 µM; with NCI-H522 lung, 0.0035 µM; in the assay with OVCAR-8 ovarian, 0.00801 µM. Besides, the TGI in the assay on RXF 393 renal was 0.0194 µM; in the assay with SK-MEL-5 melanoma, 0.0107 µM; in the assay on SNB-19 CNS it was 0.0357 µM; in the assay on UACC-62 melanoma, 0.0153 µM.
As to `C#CCOc1cccc(Nc2ncnc3c(NC(=O)CCl)cccc23)c1`, the GI50 is 10.7 µM with CCRF-CEM leukemia; 20 µM in the assay with EKVX NSCLC; 17.5 µM in the assay on HL-60(TB) leukemia; 23.7 µM in the assay on NCI-H460 lung; 13.6 µM in the assay with NCI-H522 lung; 31.6 µM in the assay with OVCAR-8 ovarian. Also, the GI50 in the assay on RXF 393 renal was 27.3 µM; with SK-MEL-5 melanoma, 14 µM; in the assay on SNB-19 CNS, 33.9 µM; with UACC-62 melanoma it was 27 µM. Moreover, the TGI with CCRF-CEM leukemia was 35.9 µM; in the assay with EKVX NSCLC, 54.1 µM; with HL-60(TB) leukemia, 40.6 µM; in the assay on NCI-H460 lung, 56 µM; with NCI-H522 lung, 29.3 µM; in the assay with OVCAR-8 ovarian, above 100 µM. The TGI with RXF 393 renal was 68.4 µM; with SK-MEL-5 melanoma, 27.2 µM; in the assay with SNB-19 CNS, above 100 µM; in the assay with UACC-62 melanoma, above 100 µM.

Source of the values: PubChem BioAssay (NCI).
